The target in the test is T1, hCRTH2 receptor (Homo sapiens, UniProt Q9Y5Y4).
T1 construct: expressed in transfected cells; host or cells: HEK293
T1 sequence (Q9Y5Y4 1-395): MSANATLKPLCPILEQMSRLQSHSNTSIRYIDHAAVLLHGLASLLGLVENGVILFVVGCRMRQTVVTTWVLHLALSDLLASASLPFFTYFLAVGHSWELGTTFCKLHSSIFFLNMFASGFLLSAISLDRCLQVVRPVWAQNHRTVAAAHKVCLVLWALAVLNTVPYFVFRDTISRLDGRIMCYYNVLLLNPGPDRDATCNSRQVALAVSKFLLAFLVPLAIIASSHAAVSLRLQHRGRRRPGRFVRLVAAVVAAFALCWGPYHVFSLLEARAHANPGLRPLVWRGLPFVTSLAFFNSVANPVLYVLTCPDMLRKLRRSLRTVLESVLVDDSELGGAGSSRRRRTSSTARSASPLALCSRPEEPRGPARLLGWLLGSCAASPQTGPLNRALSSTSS
Description: Radioligand displacement assay (3H-PGD2) on hCRTH2 receptor membranes. It counts as binding. To be noted: antagonistic activity; 3H-PGD2 displacement on HEK293-hCRTH2 membrane fragments.

Consider `O=C(O)COc1ccc(Cl)cc1C1c2ccccc2CCN1C(=O)CCCc1ccc(Cl)cc1` (racemic) [Example 93, (±)-(4-Chloro-2-{2-[4-(4-chloro-phenyl)-butyryl]-1,2,3,4-tetrahydro-isoquinolin-1-yl}-phenoxy)-acetic acid], for which the IC50 (as a rule, the midpoint of a concentration-inhibition curve) stood at 12.9 nM. For `Cc1cccc(OCCC(=O)N2CCc3ccccc3C2c2cc(Cl)ccc2OCC(=O)O)c1` (racemic) [Example 94, (±)-{4-Chloro-2-[2-(3-m-tolyloxy-propionyl)-1,2,3,4-tetrahydro-isoquinolin-1-yl]-phenoxy}-acetic acid], the IC50 turned out to be 16.2 nM. With `O=C(O)COc1ccc(Cl)cc1C1c2ccccc2CCN1C(=O)CCOc1cccc(Cl)c1` (racemic) [Example 95, (±)-(4-Chloro-2-{2-[3-(3-chloro-phenoxy)-propionyl]-1,2,3,4-tetrahydro-isoquinolin-1-yl}-phenoxy)-acetic acid] the figure was 27.5 nM; with `O=C(O)COc1ccc(Cl)cc1C1c2ccccc2CCN1C(=O)Cc1c[nH]c2ccc(Cl)cc12` (racemic) [Example 96, (±)-(4-Chloro-2-{2-[2-(5-chloro-1H-indol-3-yl)-acetyl]-1,2,3,4-tetrahydro-isoquinolin-1-yl}-phenoxy)-acetic acid], 172 nM. Turning to `Cc1ccc(CCCC(=O)N2CCc3ccccc3C2c2cc(Cl)ccc2OCC(=O)O)cc1` (racemic) [Example 97, (±)-{4-Chloro-2-[2-(4-p-tolyl-butyryl)-1,2,3,4-tetrahydro-isoquinolin-1-yl]-phenoxy}-acetic acid], the IC50 was found to be 9.7 nM. In turn, `O=C(O)COc1ccc(Cl)cc1C1c2ccccc2CCN1C(=O)Cc1csc2ccc(Cl)cc12` (racemic) [Example 98, (±)-(4-Chloro-2-{2-[2-(5-chloro-benzo[b]thiophen-3-yl)-acetyl]-1,2,3,4-tetrahydro-isoquinolin-1-yl}-phenoxy)-acetic acid] yielded an IC50 of 124 nM. The molecule `COc1ccc2[nH]c(CC(=O)N3CCc4ccccc4C3c3cc(Cl)ccc3OCC(=O)O)cc2c1` (racemic) [Example 99, (±)-(4-Chloro-2-{2-[2-(5-methoxy-1H-indol-2-yl)-acetyl]-1,2,3,4-tetrahydro-isoquinolin-1-yl}-phenoxy)-acetic acid] gave an IC50 of 296 nM. `Cc1ccc2onc(CC(=O)N3CCc4ccccc4C3c3cc(Cl)ccc3OCC(=O)O)c2c1` (racemic) [Example 100, (±)-(4-Chloro-2-{2-[2-(5-methyl-benzo[d]isoxazol-3-yl)-acetyl]-1,2,3,4-tetrahydro-isoquinolin-1-yl}-phenoxy)-acetic acid] had a half-maximal inhibitory concentration (IC50) of 205 nM. Take `COc1ccc2onc(CC(=O)N3CCc4ccccc4C3c3cc(Cl)ccc3OCC(=O)O)c2c1` (racemic) [Example 101, (±)-(4-Chloro-2-{2-[2-(5-methoxy-benzo[d]isoxazol-3-yl)-acetyl]-1,2,3,4-tetrahydro-isoquinolin-1-yl}-phenoxy)-acetic acid]: the IC50 worked out at 19.6 nM. Molecule `O=C(O)COc1ccc(Cl)cc1C1c2ccccc2CCN1C(=O)CCOc1ccc(F)cc1` (racemic) [Example 102, (±)-(4-Chloro-2-{2-[3-(4-fluoro-phenoxy)-propionyl]-1,2,3,4-tetrahydro-isoquinolin-1-yl}-phenoxy)-acetic acid] yielded an IC50 of 7.53 nM. Turning to `O=C(O)COc1ccc(Cl)cc1C1c2ccccc2CCN1C(=O)CCCc1ccc(F)cc1` (racemic) [Example 103, (±)-(4-Chloro-2-{2-[4-(4-fluoro-phenyl)-butyryl]-1,2,3,4-tetrahydro-isoquinolin-1-yl}-phenoxy)-acetic acid], the half-inhibitory concentration (IC50) is 11.2 nM. `Cc1ccccc1CCC(=O)N1CCc2ccccc2C1c1cc(Cl)ccc1OCC(=O)O` (racemic) [Example 104, (±)-{4-Chloro-2-[2-(3-o-tolyl-propionyl)-1,2,3,4-tetrahydro-isoquinolin-1-yl]-phenoxy}-acetic acid] yielded an IC50 of 28.6 nM.

Source of the values: patent US8575158B2, “1-phenyl-substituted heterocyclyl derivatives and their use as prostaglandin D2 receptor modulators” (Actelion Pharmaceuticals Ltd., priority 2010, dated 2013).
